Structures can show the parent of a compound that is named as a salt.
Target: CCR8 (Homo sapiens, UniProt P51685)
Assay: Tango assay (Tango-CCR8-Gal4-CHO-K1 cells, CCL1-stimulated, ONE-Glo luminescence)
Conditions: Tango Assay IC50, Inhibition of CCR8 Tango cell in vitro
Procedure: The Tango cell line was used to monitor antagonists-mediated receptor inactivation.
Tango cells (Tango-CCR8-Gal4-CHO-K1 cells constructed by Genomeditech) were passaged in complete medium (F12K, 10% FBS, 1% penicillin-streptomycin, 4 g/ml puromycin, 4 g/ml blasticidin and 100 g/ml hygromycin) in incubator (37° C., 5% CO2).
Twenty-four hours before the seed, cells were cultured in 10 or 15 cm dish at a density of 30% confluence in culture medium (F12K, 10% FBS, 1% penicillin-streptomycin).
Cells were suspended in starving medium (F12K, 1% FBS, 1% penicillin-streptomycin) before being seeded into black/clear 96 wells (1×10^4 cells/70 μl/well) and incubated for 6 hours (37° C., 5% CO2). Different concentration of compound, dissolved in DMSO, was into the 96-well plates, with 50 μl in each well, and incubation continued for 1 hour at 37° C.
After the incubation, the medium was removed and the 96-well plate was put in −80° C. freezer for an hour or longer. The plate and the ONE-Glo reagent (Promega, Catalog Number: E6110) which was frozen in −80° C., were taken out and rewarmed to room temperature. […] After incubating for 10 minutes at room temperature, the plate was read using microplate luminescence reader at 560 nm.
The microplate reader records luminescence in relative luminescence units (RLU).

CCR8, sequence (P51685 whole entry, the tested form may be a part): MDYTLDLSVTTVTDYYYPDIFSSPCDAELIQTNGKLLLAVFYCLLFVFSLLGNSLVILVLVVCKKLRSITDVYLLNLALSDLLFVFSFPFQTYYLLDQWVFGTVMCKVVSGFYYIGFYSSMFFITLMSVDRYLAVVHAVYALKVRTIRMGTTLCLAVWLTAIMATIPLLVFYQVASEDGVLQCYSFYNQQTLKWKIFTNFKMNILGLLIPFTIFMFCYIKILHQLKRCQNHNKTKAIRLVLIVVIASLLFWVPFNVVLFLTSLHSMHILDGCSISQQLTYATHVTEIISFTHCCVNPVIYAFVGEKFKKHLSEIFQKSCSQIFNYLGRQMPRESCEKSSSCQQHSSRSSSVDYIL

In the case of `Cc1ccccc1C(=O)Nc1c(C)cc(S(=O)(=O)N[C@H](C)C2CCNCC2)cc1Cl` [Compound 180A, (R)-N-(2-chloro-6-methyl-4-(N-(1-(piperidin-4-yl)ethyl)sulfamoyl)phenyl)-2-methylbenzamide hydrochloride], the IC50 is reported as 9 nM.
